Entries after “also recorded” stand apart in the source; their conditions may differ.
Tested on: βL-crystallin
Experiment: Dynamic light scattering of βL-crystallin solutions with added agents (aggregate size, hydrodynamic radius)
Format: biochemical, bovine
Conditions: for Effect on βL-crystallin aggregate size / de-clumping: SDS 0.1 mg/mL (below CMC), 0.2 mg/mL βL-crystallin in water, sulfate
Method: βL-crystallin (C5163 Sigma-Aldrich) and α-crystallin (C4163 Sigma-Aldrich) from a bovine eye lens were stored in a biological freezer. The four stock solutions prepared for these experiments were 2 mg/mL βL-crystallin in water, 2 mg/mL βL-crystallin in PBS, 2 mg/mL α-crystallin in water, and 0.15M NaCl in water. All water used in these experiments was filtered and deionized. A stock solution of 2 mg/mL βL-crystallin in water was prepared by mixing 10 mg of βL-crystallin with 5 mL water in a decontaminated 20 mL scintillation vial. A similar procedure was followed to prepare 2 mg/mL α-crystallin in water and 2 mg/mL βL-crystallin in PBS.
A dilution of these stock solutions was used to create 2 mL samples of 0.2 mg/mL βL-crystallin in water, 0.2 mg/mL α-crystallin in water, 0.2 mg/mL βL-crystallin, 0.15M NaCl in water, 0.2 mg/mL βL-crystallin, 0.6 mg/mL α-crystallin in water, and 0.2 mg/mL βL-crystallin in PBS.
An ALV instrument with an Ar laser (λ=514.5 nm) was used to collect DLS data from 35°-65° in 5° increments and from 70°-90° in 10° increments. An ALV5000 correlator was used to analyze the data. Glass DLS tubes (4 mL) were sonicated in an extremely dilute solution of Micro-90 for 1 hour and then rinsed with filtered deionized water eight times followed by acetone eight times. The concentration of crystallins in the lens is typically very high. However, dilute solutions of the crystallins are required for DLS characterization, as set forth by limitations imposed by the Zimm regime.
The hydrodynamic radius, Rh, can be determined using the Stokes-Einstein equation,
As mentioned earlier, α-crystallin acts as a chaperone protein in the lens as it either diminishes or inhibits aggregation. In order to determine the impact of α-crystallin and its chaperone abilities on βL-crystallin, a solution of 0.2 mg/mL βL-crystallin, 0.6 mg/mL α-crystallin in water at 23° C. was prepared for DLS. […] The addition of the chaperone was thereby seen to remove the aggregate.
In order to determine if the aggregation of the crystallins is electrostatic in nature, dynamic light scattering was accomplished on 0.2 mg/mL βL-crystallin in a 0.15M NaCl water solution, (FIG. 8).
The effect of SDS, sodium dodecyl sulfate (purchased from Sigma Aldrich) a […] surfactant on βL-crystallin deaggregation was studied as in Example 4. The CMC for SDS is 2.36 mg/ml, so the SDS concentration was maintained below that value.

[1] = 0.2 mg/mL βL-crystallin, 0.15M NaCl in water

Compound | Rh of βL-crystallin aggregate (slow mode) after addition of the salt (0.2 mg/mL βL-crystallin in 0.15M NaCl water solution, without salt 230 nm) [nm] | Effect of salt on fast mode (unaggregated βL-crystallin) [1] | Reduction in aggregate Rh upon addition of NaCl [1] | Effect on βL-crystallin aggregate size (about 0.15 M NaCl) | Effect on βL-crystallin aggregate size / de-clumping (listed as sodium dodecyl sulfate) | Effect on βL-crystallin aggregate size / de-clumping
[Cl-].[Na+] [NaCl] | 120 | not significantly affected | two-fold reduction | decreases βL-crystallin aggregate size |  | 
CCCCCCCCCCCCOS(=O)(=O)[O-].[Na+] [SDS, sodium dodecyl sulfate, reference compound] |  |  |  |  | no effect; also recorded: does not reduce βL-crystallin aggregate sizes | did not stimulate de-clumping

Source: patent publication US8758802B2, “Methods of inhibiting cataracts and presbyopia” (University of Massachusetts, priority 2009, dated 2014)
